How the values were obtained:
[1] = system: DU145 cells; test: Apoptosis and cell cycle progression, DU145; type: cell-based, Human; details: DU145, 4 uM PEITC
Source text: The negative effects of PEITC on cell proliferation might affect the apoptotic potential of the cells and the cell cycle progression.

[2] = target: T1, p53 in H1299-143A cells (Homo sapiens, UniProt P04637, V143A); test: PEITC-induced p53 depletion in H1299-143A cells, mutant vs wild-type conformation; type: cell-based; details: 20 μM PEITC, 24 h
T1 construct: expressed in transfected cells; host or cells: H1299-143A
Protocol: FIG. 2 depicts PEITC depleting p53 protein in human cancer cells with different p53 mutation but not in cells with wild-type p53. (A) Cell lines harboring mutant p53 were treated with 15 μM PEITC (MDA-MB-231, MDA-MB-468, and SCC-4) or 10 μM PEITC (DU145 and SW480) for the indicated times. (B) Cells with wild-type p53 were treated with 20 μM PEITC (HCT116, A549, and MCF-7) or 15 μM PEITC (MCF-10A) for the indicated times. […] H1299-175H cells are used as control. Both cells were treated with 20 μM PEITC for 24 h.

[3] = target: T2, wild-type p53 in A549, HCT116, MCF-7 and MCF-10A cells (Homo sapiens, UniProt P04637); test: Immunoblot of wild-type p53 in cells with wild-type p53; type: cell-based
T2 construct: host or cells: A549, HCT116, MCF-7, MCF-10A
Source text: Human H596, A549, HCT116, MDA-MB-231, MDA-MB-468, MCF-7, DU145, MCF-10A, SW480, and SCC-4 cells were obtained from ATCC (Manassas, Va.). H1299-175H cells were kindly provided by Dr. Maria Laura Avantaggiati (Georgetown University). Cells were maintained in DMEM or RPMI-1640 medium supplemented with 10% FBS (Hyclone). DMSO, PEITC, BITC, SFN, AITC, NMPEA, and monochlorobimane were purchased from Sigma-Aldrich (St. Louis, Mo.). 2,2-Diphenylethyl ITC, 4-phenoxybenzyl ITC, 4-methoxybenzyl ITC, 4-chlorobenzyl ITC, Dα-methylbenzyl ITC, trityl ITC, and 3-phenylpropyl ITC were purchased from Trans World Chemicals (Rockville, Md.). Erucin and 4-phenylbutyl ITC were from LKT Laboratories, Inc. (St. Paul, Minn.). […] All the compounds are with purities ≧95% as determined by gas-liquid chromatography or HPLC. […]
Whole cell lysates were prepared in lysis buffer (20 mM HEPES, pH 7.4, 2 mM EGTA, 50 mM β-glycerol phosphate, 1% Triton X-100, 10% glycerol, 1 mM DTT, 1 mM PMSF, […], 1 mM Na3-VO4, and 5 mM NaF). […] Proteins were detected using enhanced chemiluminescence (ECL) reagents (GE Healthcare). […]

[4] = system: mutant p53 mRNA; test: Reverse transcription PCR of p53 mRNA in H596 cells; type: cell-based, Human; details: H596, 15 μM PEITC; 2, 4, and 6 h
Protocol: Total RNA was extracted from the cells using the RNeasy kit (Qiagen). Reverse transcription PCR was performed using SuperScript One-Step RT-PCR kit (Invitrogen) according to the manufacturer's instructions. Primers for p53 were 5′-[…]-3′ (sense) and 3′-[…]-5′ (antisense). Primers for β-actin were 5′-[…]-3′ (sense) and 3′-[…]-5′ (antisense). β-Actin was used as an internal standard for RNA normalization.

S=C=NCCc1ccccc1 [PEITC, phenethyl isothiocyanate]
apoptosis compared to DMSO treated cells [1]: two fold increase
cell cycle progression [1]: S-phase arrest
sensitivity to PEITC-induced p53 depletion, mutant conformation (37° C.) vs wild-type conformation (32.5° C.) [2]: more sensitive
wild-type p53 expression ([3]; 15 or 20 μM PEITC for 2, 4, 8, and 24 h): did not decrease
level of wild type (WT) p53 protein ([3]; PEITC exposure, summary of previous experiments): no significant decrease
mutant p53 mRNA levels [4]: remained unchanged
